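The compound was tested at five concentrations on cells cultured in 96-well plates, with a 48-hour exposure period. At the GI50, growth is halved.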 Calls of active or inactive are those of the source. Rule as the data show it: active = GI50 up to about 1.1 µM and inactive = higher.
What was measured:
Assay in all cases: inhibition of tumour cell growth, NCI panel, 48 h
K562 = test system: K562
LOX IMVI = test system: LOX IMVI
U-251 = test system: U-251
HOP-92 = test system: HOP-92
EKVX = test system: EKVX
HT-29 = test system: HT-29
UACC-257 = test system: UACC-257
SR = test system: SR
786-0 = test system: 786-0
HL-60 = test system: HL-60
TK-10 = test system: TK-10
Malme-3M = test system: Malme-3M
SF-268 = test system: SF-268
ACHN = test system: ACHN
T47D = test system: T47D
SK-MEL-5 = test system: SK-MEL-5
OVCAR-4 = test system: OVCAR-4
NCI/ADR-RES = test system: NCI/ADR-RES
RPMI-8226 = test system: RPMI-8226
BT-549 = test system: BT-549

Measured: GI50

COc1ccc(Oc2cccc(C3C4C(=O)N(c5ccc(C)c(Cl)c5)C(=O)C4ON3C(C(N)=O)c3ccccc3)c2)cc1 (stereo not given)
inactive: K562 16.6 µM | LOX IMVI 13.7 µM | U-251 16.6 µM | HOP-92 24 µM | EKVX 10.4 µM | HT-29 9.33 µM | UACC-257 10.7 µM | SR 9.98 µM | 786-0 16.1 µM | HL-60 12.6 µM | TK-10 19.4 µM | Malme-3M 15.8 µM | SF-268 18.3 µM | ACHN 23.5 µM | T47D 9.23 µM | SK-MEL-5 9.55 µM | OVCAR-4 18.9 µM

N#Cc1nc(C#N)c(NC(=O)c2ccccc2C(=O)O)[nH]1
inactive: K562 > 100 µM | LOX IMVI > 100 µM | U-251 > 100 µM | HOP-92 > 100 µM | EKVX > 100 µM | HT-29 > 100 µM | UACC-257 > 100 µM | NCI/ADR-RES > 100 µM | 786-0 > 100 µM | HL-60 > 100 µM | TK-10 > 100 µM | Malme-3M > 100 µM | SF-268 > 100 µM | ACHN > 100 µM | T47D > 100 µM | SK-MEL-5 > 100 µM | RPMI-8226 > 100 µM

C/C(=N\NS(=O)(=O)c1ccc(C)cc1)C(CN1CCCCC1)C(c1ccccc1)c1c(O)c2ccccc2oc1=O (stereo not given)
inactive: K562 > 100 µM | LOX IMVI > 100 µM | U-251 > 100 µM | HOP-92 95.7 µM | EKVX > 100 µM | HT-29 > 100 µM | UACC-257 > 100 µM | SR 57 µM | 786-0 > 100 µM | HL-60 > 100 µM | TK-10 > 100 µM | Malme-3M > 100 µM | SF-268 > 100 µM | ACHN > 100 µM | SK-MEL-5 > 100 µM | RPMI-8226 > 100 µM | OVCAR-4 > 100 µM

O=C1c2ccccc2C(=O)C1C(c1ccc(F)cc1)C1C(=O)c2ccccc2C1=O
inactive: K562 > 100 µM | LOX IMVI 25.9 µM | U-251 > 100 µM | HOP-92 > 100 µM | EKVX > 100 µM | HT-29 > 100 µM | UACC-257 > 100 µM | SR 41.5 µM | 786-0 > 100 µM | HL-60 37.8 µM | TK-10 > 100 µM | Malme-3M > 100 µM | SF-268 > 100 µM | ACHN > 100 µM | SK-MEL-5 > 100 µM | RPMI-8226 48.3 µM | OVCAR-4 > 100 µM

Clc1ccc(C2SCc3nc4ccccc4n32)c(Cl)c1 (stereo not given)
inactive: K562 11 µM | LOX IMVI 15.3 µM | U-251 17.9 µM | HOP-92 2.83 µM | EKVX 11.6 µM | HT-29 16 µM | UACC-257 9.79 µM | SR 14.7 µM | 786-0 17.2 µM | HL-60 8.22 µM | TK-10 14.4 µM | Malme-3M 17.7 µM | SF-268 16.5 µM | ACHN 15 µM | SK-MEL-5 7.93 µM | RPMI-8226 6.92 µM

CN(C)/N=N/c1c[nH]nc1C(N)=O
inactive: K562 54.8 µM | LOX IMVI 53.1 µM | U-251 > 100 µM | HOP-92 > 100 µM | EKVX > 100 µM | HT-29 > 100 µM | UACC-257 > 100 µM | SR 31.3 µM | 786-0 > 100 µM | HL-60 > 100 µM | TK-10 > 100 µM | Malme-3M > 100 µM | SF-268 > 100 µM | ACHN 76.7 µM | SK-MEL-5 > 100 µM | RPMI-8226 > 100 µM | OVCAR-4 > 100 µM

O=C1C=C2CC[C@H]3[C@@H]4CC[C@H](OC(=O)c5cccc6cc7ccccc7nc56)[C@H]4CC[C@@H]3[C@H]2CC1
inactive: K562 40.1 µM | LOX IMVI 15.9 µM | U-251 99.3 µM | EKVX 63.1 µM | HT-29 > 100 µM | UACC-257 > 100 µM | NCI/ADR-RES > 100 µM | 786-0 > 100 µM | HL-60 > 100 µM | BT-549 > 100 µM | TK-10 > 100 µM | Malme-3M > 100 µM | SF-268 > 100 µM | ACHN > 100 µM | SK-MEL-5 > 100 µM | RPMI-8226 93.3 µM | OVCAR-4 > 100 µM

C[C@]12C[C@H](c3ccccc3)Nc3ccccc3N1C(c1ccccc1)=NO2
inactive: K562 33.8 µM | U-251 96.4 µM | HOP-92 30.1 µM | EKVX 21 µM | HT-29 55.2 µM | UACC-257 81.5 µM | SR 3.39 µM | NCI/ADR-RES 41.1 µM | 786-0 60.1 µM | HL-60 74.6 µM | BT-549 30.5 µM | TK-10 > 100 µM | Malme-3M 44.3 µM | SF-268 > 100 µM | ACHN 64.1 µM | SK-MEL-5 30.1 µM | RPMI-8226 47.2 µM | OVCAR-4 52 µM

CCOC1=C2N=C(Cc3ccccc3F)N=C2C(=O)c2ccccc21
inactive: K562 > 100 µM | U-251 > 100 µM | HOP-92 > 100 µM | EKVX > 100 µM | HT-29 > 100 µM | UACC-257 > 100 µM | SR > 100 µM | 786-0 > 100 µM | HL-60 > 100 µM | Malme-3M > 100 µM | SF-268 > 100 µM | ACHN > 100 µM | RPMI-8226 > 100 µM | OVCAR-4 > 100 µM

CC(C)(C)OC(=O)C1/C(=C/CBr)CN1C(=O)OC(C)(C)C (stereo not given)
inactive: K562 2.73 µM | LOX IMVI 3.24 µM | HOP-92 13.9 µM | EKVX 18 µM | HT-29 23.7 µM | UACC-257 16.3 µM | NCI/ADR-RES 22.8 µM | 786-0 11.2 µM | HL-60 2.66 µM | BT-549 16.7 µM | TK-10 16.9 µM | Malme-3M 18 µM | SF-268 4.85 µM | ACHN 16.7 µM | SK-MEL-5 14.3 µM | RPMI-8226 3.98 µM | OVCAR-4 2.86 µM

COc1ccc(C(=O)C=C2NCCN2)cc1
inactive: K562 > 100 µM | LOX IMVI > 100 µM | U-251 > 100 µM | HOP-92 > 100 µM | EKVX > 100 µM | HT-29 > 100 µM | UACC-257 > 100 µM | SR > 100 µM | 786-0 > 100 µM | HL-60 > 100 µM | TK-10 > 100 µM | Malme-3M > 100 µM | SF-268 > 100 µM | ACHN > 100 µM | SK-MEL-5 > 100 µM | RPMI-8226 > 100 µM | OVCAR-4 > 100 µM

O=C(O)CC(NC(=O)C(F)(F)F)C(=O)NC1Cc2ccccc2OC1=O (stereo not given)
inactive: K562 > 100 µM | U-251 > 100 µM | EKVX > 100 µM | HT-29 > 100 µM | UACC-257 > 100 µM | SR > 100 µM | NCI/ADR-RES > 100 µM | 786-0 > 100 µM | BT-549 > 100 µM | TK-10 > 100 µM | Malme-3M > 100 µM | SF-268 > 100 µM | ACHN > 100 µM | SK-MEL-5 > 100 µM | RPMI-8226 > 100 µM

N#CC1(CCCCl)CCCCC1
inactive: K562 > 10 µM | LOX IMVI > 100 µM | U-251 > 100 µM | HOP-92 > 100 µM | EKVX > 100 µM | HT-29 > 100 µM | UACC-257 > 100 µM | SR > 100 µM | 786-0 > 100 µM | HL-60 > 100 µM | TK-10 > 100 µM | Malme-3M > 100 µM | SF-268 > 100 µM | ACHN > 100 µM | SK-MEL-5 > 100 µM

C=CCOC(C)n1c(C)c(Br)c(=O)[nH]c1=O (stereo not given)
inactive: LOX IMVI > 100 µM | U-251 > 100 µM | HOP-92 > 100 µM | EKVX > 100 µM | HT-29 > 100 µM | UACC-257 > 100 µM | SR > 100 µM | 786-0 > 100 µM | HL-60 > 100 µM | TK-10 > 100 µM | Malme-3M > 100 µM | SF-268 > 100 µM | ACHN > 100 µM | SK-MEL-5 > 100 µM

O=C(Nc1cc(Cl)c(Cl)cc1Cl)C(=O)C(C(=O)c1ccccc1)C1OC(=O)c2ccccc21 (stereo not given)
inactive: K562 > 100 µM | LOX IMVI > 100 µM | U-251 > 100 µM | HOP-92 > 100 µM | EKVX > 100 µM | HT-29 > 100 µM | UACC-257 > 100 µM | SR 97.7 µM | 786-0 > 100 µM | HL-60 > 100 µM | TK-10 > 100 µM | Malme-3M > 100 µM | SF-268 > 100 µM | ACHN > 100 µM | RPMI-8226 > 100 µM | OVCAR-4 > 100 µM

O=C1CCC(c2nc3ccccc3o2)C(=O)N1 (stereo not given)
inactive: K562 > 100 µM | LOX IMVI > 100 µM | U-251 > 100 µM | HOP-92 > 100 µM | EKVX > 100 µM | HT-29 > 100 µM | UACC-257 > 100 µM | SR > 100 µM | 786-0 > 100 µM | HL-60 > 100 µM | TK-10 > 100 µM | Malme-3M > 100 µM | SF-268 > 100 µM | ACHN > 100 µM | SK-MEL-5 > 100 µM | OVCAR-4 > 100 µM

Reference: ChEMBL document CHEMBL1201862, “PubChem BioAssay data set” (2004)
